Experimental data: patent publication US9200260B2, “Compositions and methods for the transfer of a hexosamine to a modified nucleotide in a nucleic acid” (New England Biolabs, Inc., priority 2012, dated 2015)

Experiments:
BGT/Y261L [1] = molecular target: T1, BGT/Y261L (Enterobacteria phage T4, UniProt P04547, Y261L); format: biochemical; design: purchased New England Biolabs, Inc. (Ipswich, Mass.); details: for UDP-Sugar concentration required for complete protection of BGT DNA from MfeI cleavage: enzyme BGT/Y261L, 100 ng, 0.25 μg BGT DNA, 37° C. 1 h, >> incomplete protection at highest tested concentration, n.a. no activity; for transfer efficiency by BGT/Y261L (in words): compared with natural UDP-Glc
T1 sequence (P04547 whole entry Y261L): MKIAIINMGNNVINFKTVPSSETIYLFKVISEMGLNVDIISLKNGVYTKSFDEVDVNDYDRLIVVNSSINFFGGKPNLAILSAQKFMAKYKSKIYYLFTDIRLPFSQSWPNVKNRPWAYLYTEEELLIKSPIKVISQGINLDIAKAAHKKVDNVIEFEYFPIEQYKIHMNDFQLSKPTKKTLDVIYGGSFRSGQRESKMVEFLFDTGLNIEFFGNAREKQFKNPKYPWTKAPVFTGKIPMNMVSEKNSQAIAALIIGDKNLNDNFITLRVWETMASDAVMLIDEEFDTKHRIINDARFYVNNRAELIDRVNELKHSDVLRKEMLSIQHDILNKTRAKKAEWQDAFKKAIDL
Method: (§1) After glycosylation, the glucosyltransferase was heat-inactivated by incubating for 10 minutes at 70° C. To analyze the enzyme-catalyzed transfer efficiency, samples were incubated with 1 μL (20 units) MfeI for 1 hour at 37° C. Reaction products were separated by agarose gel electrophoresis and stained with ethidium bromide to check for complete protection of BGT DNA against MfeI cleavage. […]
(§2) BGT DNA contains 5-hmC instead of cytosine and was produced from phage deficient in α- and β-glucosyltransferases. The degree of glycosylation of BGT DNA was determined by incubating the samples with the restriction endonuclease MfeI.
(§3) Top row: wild-type BGT; middle row: BGT/Y261L; bottom row: wild-type AGT. […] Then the glucosyltransferase was killed by heat at 70° C., and 1 μL (20 units) MfeI was added and incubated at 37° C. for 1 hour. The results were analyzed by agarose gel electrophoresis. Concentration values are given in mM.
(§4) Top row: wild-type BGT; middle row: BGT/Y261L; bottom row: wild-type AGT. […] Various concentrations of each substrate (as indicated) were incubated with 0.25 μg BGT DNA in the presence of 100 ng glucosyltransferase at 37° C. for 1 hour. Then the glucosyltransferase was killed by heat at 70° C. for 10 minutes, and 1 μL (20 units) MfeI was added and incubated at 37° C. for 1 hour. The results were analyzed by agarose gel electrophoresis. Concentration values are given in mM.

[2] = molecular target: T2, wild-type AGT (T4 phage α-glucosyltransferase) (Enterobacteria phage T4, UniProt P04519); test: Enzymatic transfer of UDP-sugars to BGT DNA by wild-type AGT (protection from MfeI cleavage, agarose gel); format: biochemical; details: for UDP-Sugar concentration required for complete protection of BGT DNA from MfeI cleavage: enzyme AGT, 100 ng, 0.25 μg BGT DNA, 37° C. 1 h, >> incomplete protection at highest tested concentration, n.a. no activity
T2 construct: purchased New England Biolabs, Inc. (Ipswich, Mass.)
T2 sequence (P04519 whole entry): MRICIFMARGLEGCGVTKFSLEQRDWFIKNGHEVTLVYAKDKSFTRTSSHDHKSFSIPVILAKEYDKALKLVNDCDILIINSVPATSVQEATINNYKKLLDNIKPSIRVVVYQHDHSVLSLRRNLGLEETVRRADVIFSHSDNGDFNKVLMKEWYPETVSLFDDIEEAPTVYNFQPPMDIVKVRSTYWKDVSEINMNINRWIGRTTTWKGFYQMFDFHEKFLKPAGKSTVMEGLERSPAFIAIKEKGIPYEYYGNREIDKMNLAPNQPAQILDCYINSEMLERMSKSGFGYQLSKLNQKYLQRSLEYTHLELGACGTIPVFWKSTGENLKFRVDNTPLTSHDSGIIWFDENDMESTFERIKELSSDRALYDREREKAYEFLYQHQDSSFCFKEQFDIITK
Method: After glycosylation, the glucosyltransferase was heat-inactivated by incubating for 10 minutes at 70° C. To analyze the enzyme-catalyzed transfer efficiency, samples were incubated with 1 μL (20 units) MfeI for 1 hour at 37° C. Reaction products were separated by agarose gel electrophoresis and stained with ethidium bromide to check for complete protection of BGT DNA against MfeI cleavage.
Nucleic Acids Res., 13, 7551-7568; Szwagierczak, A., Bultmann, S., Schmidt, C. […] Nucleic Acids Res., 38, e181].
as §2, §3, §4

[3] = molecular target: T3, wild-type BGT (T4-β-glucosyltransferase) (Enterobacteria phage T4, UniProt P04547); test: Enzymatic transfer of UDP-sugars to BGT DNA by wild-type BGT (protection from MfeI cleavage, agarose gel); format: biochemical; details: for UDP-Sugar concentration required for complete protection of BGT DNA from MfeI cleavage: enzyme BGT, 100 ng, 0.25 μg BGT DNA, 37° C. 1 h, >> incomplete protection at highest tested concentration, n.a. no activity
T3 construct: purchased New England Biolabs, Inc. (Ipswich, Mass.)
T3 sequence (P04547 1-351): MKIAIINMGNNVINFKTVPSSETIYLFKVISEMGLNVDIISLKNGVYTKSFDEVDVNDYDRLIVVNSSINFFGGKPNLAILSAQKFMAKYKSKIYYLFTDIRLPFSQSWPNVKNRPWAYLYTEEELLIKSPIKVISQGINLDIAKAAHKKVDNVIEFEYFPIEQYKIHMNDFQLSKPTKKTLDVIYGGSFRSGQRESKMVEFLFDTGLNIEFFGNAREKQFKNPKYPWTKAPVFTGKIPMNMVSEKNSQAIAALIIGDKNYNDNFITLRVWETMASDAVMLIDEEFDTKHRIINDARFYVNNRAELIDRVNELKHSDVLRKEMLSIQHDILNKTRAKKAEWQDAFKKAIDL
Method: as §1, §2, §3, §4

wild-type BGT [4] = molecular target: T4, wild-type BGT (Enterobacteria phage T4, UniProt P04547); details: cited from earlier work
AGT = AGT (Enterobacteria phage T4, UniProt P04519)
Chain of AGT (P04519 whole entry): as the sequence (P04519 whole entry) above

wild-type BGT [5] = molecular target: T4, wild-type BGT; details: 0.02 to 10.0 mM in the presence of 40 μM UDP-Glc; UDP-Glc 0.02 to 20.0 mM in the presence of 5 mM compound
Method: (§5) After adding 100 ng of wild-type BGT or BGT/Y261L, the reaction mixtures were incubated at 37° C. for 1 hour in 1× NEBuffer 4. After glycosylation, the glucosyltransferase was heat-inactivated by incubating for 10 minutes at 70° C. […] Reaction products were separated by electrophoresis on agarose gel and stained with ethidium bromide.
(§6) Concentration values are given in mM.

BGT/Y261L [6] = molecular target: T1, BGT/Y261L; details: 0.02 to 10.0 mM in the presence of 40 μM UDP-Glc; UDP-Glc 0.02 to 20.0 mM in the presence of 5 mM compound
Method: as §5, §6

Molecule | UDP-Sugar concentration required for complete protection of BGT DNA from MfeI cleavage (BGT/Y261L [1]) | UDP-Sugar concentration required for complete protection of BGT DNA from MfeI cleavage [2] | UDP-Sugar concentration required for complete protection of BGT DNA from MfeI cleavage [3] | further results
O=C(O)[C@H]1O[C@H](OP(=O)(O)OP(=O)(O)OC[C@H]2O[C@@H](n3ccc(=O)[nH]c3=O)[C@H](O)[C@@H]2O)[C@H](O)[C@@H](O)[C@@H]1O [UDP-GlcUA, UDP-Glucuronic acid, reference compound] | >>10.0 mM | >>20.0 mM | 1.0 mM | –
NCC1OC(OP(=O)(O)OP(=O)(O)OC[C@H]2O[C@@H](n3ccc(=O)[nH]c3=O)[C@H](O)[C@@H]2O)C(O)C(O)C1O (stereo partly shown) [Compound 3, UDP-6-glucosamine] | 0.31 mM | >>5.0 mM | 0.02 mM | transfer efficiency by BGT/Y261L, lower than natural UDP-Glc (BGT/Y261L [1]; relative to natural UDP-Glc): about 15 fold
CC(=O)N[C@H]1[C@@H](OP(=O)(O)OP(=O)(O)OC[C@H]2O[C@@H](n3ccc(=O)[nH]c3=O)[C@H](O)[C@@H]2O)O[C@H](CO)[C@@H](O)[C@@H]1O [UDP-GlcNAc, UDP-N-acetyl-D-glucosamine, reference compound] | 2.5 mM | >>20.0 mM | 25 mM | transfer by BGT/Y261L more efficient than by wild-type BGT (BGT/Y261L [1]; BGT/Y261L versus wild-type BGT): 10 fold; transfer efficiency by the Y261L enzyme, lower compared to UDP-2-GlcN 4 (BGT/Y261L [1]; relative to UDP-2-GlcN 4): approximately 100 fold
[N-]=[N+]=NCC1OC(OP(=O)(O)OP(=O)(O)OC[C@H]2O[C@@H](n3ccc(=O)[nH]c3=O)[C@H](O)[C@@H]2O)C(O)C(O)C1O (stereo partly shown) [Compound 1, UDP-6-Azido-Glc, reference compound] | >>1.0 mM | – | 0.04 mM | decrease in the reaction rate compared to the native UDP-Glc cofactor (wild-type BGT [4]): ~6 fold; transfer efficiency by BGT/Y261L (in words) (BGT/Y261L [1]): cannot efficiently transfer
UDP-2-Keto-Glc [Compound 5] | >>4.0 mM | – | >>4.0 mM | transfer by BGT/Y261L at the highest tested concentration (BGT/Y261L [1]; 4 mM): not detected
N[C@H]1[C@@H](OP(=O)(O)OP(=O)(O)OC[C@H]2O[C@@H](n3ccc(=O)[nH]c3=O)[C@H](O)[C@@H]2O)O[C@H](CO)[C@@H](O)[C@@H]1O [Compound 4, UDP-2-glucosamine] | 0.03 mM | >>1.25 mM | 0.03 mM | –
[N-]=[N+]=NC1C(OP(=O)(O)OP(=O)(O)OCC2OC(n3ccc(=O)[nH]c3=O)C(O)C2O)OC(CO)C(O)C1O (stereo not shown) [Compound 2, UDP-2-Azido-Glc] | – | – | – | inhibition of AGT (in words) (AGT): not for AGT; transfer efficiency by BGT/Y261L (in words) (BGT/Y261L [1]): None of the three tested enzymes efficiently transferred; transfer efficiency by wild-type AGT (in words) [2]: None of the three tested enzymes efficiently transferred; inhibition of wild-type BGT (mode, in words) (wild-type BGT [5]): competitive inhibitor; inhibition of BGT/Y261L (mode, in words) (BGT/Y261L [6]): competitive inhibitor; transfer efficiency by wild-type BGT (in words) ([3]; compared with natural UDP-Glc): None of the three tested enzymes efficiently transferred
